# Measurements reported in article PMC12136037, “Type II kinase inhibitors that target Parkinson’s disease–associated LRRK2” (Science Advances, 2025).
# Experiments:
# Assay in all cases: DSF 100 kinase selectivity screen;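 note: compound tested at 20 µM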
# Assay type in all cases: binding
# [1] = target: T1, ~100 representative kinases (Homo sapiens, UniProt P07332); details: protein FESA; average of three replicates
# T1 construct: Recombinant protein kinase domains with a concentration of 2 μM
# Outline: (§1)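 Each kinase domain, at 2 μM, is mixed with 20 μM test compound and SYPRO Orange in Hepes (20 mM, pH 7.5) with 500 mM NaCl. Temperature is then raised at 3°C/min and fluorescence-monitored unfolding yields the melting temperature change, ΔTm in degrees Celsius.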
# [2] = target: T2, ~100 representative kinases (Homo sapiens, UniProt P28482); details: protein MAPK1; average of three replicates
# T2 construct: Recombinant protein kinase domains with a concentration of 2 μM
# T2 sequence (P28482 whole entry, the tested form may be a part): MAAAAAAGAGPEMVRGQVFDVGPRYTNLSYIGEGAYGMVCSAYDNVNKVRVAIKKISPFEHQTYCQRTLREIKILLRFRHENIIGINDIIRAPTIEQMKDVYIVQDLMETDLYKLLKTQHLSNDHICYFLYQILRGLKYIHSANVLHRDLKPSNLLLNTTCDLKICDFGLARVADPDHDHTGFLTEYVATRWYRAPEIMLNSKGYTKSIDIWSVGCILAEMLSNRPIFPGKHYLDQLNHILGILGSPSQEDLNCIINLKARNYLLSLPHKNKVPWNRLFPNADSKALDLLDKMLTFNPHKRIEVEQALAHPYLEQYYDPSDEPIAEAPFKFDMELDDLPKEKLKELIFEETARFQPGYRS
# Outline: as §1
# [3] = target: T3, ~100 representative kinases (Homo sapiens, UniProt P49841); details: protein GSK3B; average of three replicates
# T3 construct: Recombinant protein kinase domains with a concentration of 2 μM
# T3 sequence (P49841 whole entry, the tested form may be a part): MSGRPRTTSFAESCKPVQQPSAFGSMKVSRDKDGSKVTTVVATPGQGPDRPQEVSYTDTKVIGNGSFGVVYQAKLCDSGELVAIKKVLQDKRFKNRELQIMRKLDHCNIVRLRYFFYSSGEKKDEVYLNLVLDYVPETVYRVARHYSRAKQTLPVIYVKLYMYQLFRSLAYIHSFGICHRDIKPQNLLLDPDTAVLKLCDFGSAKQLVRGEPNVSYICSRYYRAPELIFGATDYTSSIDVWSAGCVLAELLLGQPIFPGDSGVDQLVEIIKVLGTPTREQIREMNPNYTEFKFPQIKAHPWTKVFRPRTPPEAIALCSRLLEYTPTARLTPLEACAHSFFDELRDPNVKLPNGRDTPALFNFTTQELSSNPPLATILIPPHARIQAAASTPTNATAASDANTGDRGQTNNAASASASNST
# Outline: as §1
# [4] = target: T4, ~100 representative kinases (Homo sapiens, UniProt O00444); details: protein PLK4; average of three replicates
# T4 construct: Recombinant protein kinase domains with a concentration of 2 μM
# T4 sequence (O00444 1-970): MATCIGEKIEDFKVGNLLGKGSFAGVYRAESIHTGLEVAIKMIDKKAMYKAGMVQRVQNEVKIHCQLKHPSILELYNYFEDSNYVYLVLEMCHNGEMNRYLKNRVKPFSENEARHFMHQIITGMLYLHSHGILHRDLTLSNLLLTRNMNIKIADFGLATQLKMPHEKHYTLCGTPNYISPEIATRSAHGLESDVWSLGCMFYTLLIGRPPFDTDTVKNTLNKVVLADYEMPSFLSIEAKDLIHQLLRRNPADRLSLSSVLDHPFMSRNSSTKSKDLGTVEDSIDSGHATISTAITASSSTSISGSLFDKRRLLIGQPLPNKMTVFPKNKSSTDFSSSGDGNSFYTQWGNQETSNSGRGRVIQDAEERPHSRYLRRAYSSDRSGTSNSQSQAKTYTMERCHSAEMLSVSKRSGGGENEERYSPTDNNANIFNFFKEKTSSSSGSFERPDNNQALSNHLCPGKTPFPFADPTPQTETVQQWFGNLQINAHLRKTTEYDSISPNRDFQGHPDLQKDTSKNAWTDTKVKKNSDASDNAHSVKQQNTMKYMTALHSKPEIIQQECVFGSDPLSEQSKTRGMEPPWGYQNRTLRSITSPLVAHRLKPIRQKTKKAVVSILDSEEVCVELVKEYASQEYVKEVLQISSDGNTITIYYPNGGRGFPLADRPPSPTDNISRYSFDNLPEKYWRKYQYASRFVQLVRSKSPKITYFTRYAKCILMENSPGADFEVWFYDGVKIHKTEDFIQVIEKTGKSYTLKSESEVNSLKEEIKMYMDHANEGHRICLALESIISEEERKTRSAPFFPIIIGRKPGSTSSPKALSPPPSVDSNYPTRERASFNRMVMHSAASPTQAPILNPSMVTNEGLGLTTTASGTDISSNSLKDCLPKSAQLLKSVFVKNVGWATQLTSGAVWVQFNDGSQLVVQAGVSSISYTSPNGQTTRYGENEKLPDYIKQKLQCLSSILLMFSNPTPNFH
# Outline: as §1
# [5] = target: T5, ~100 representative kinases (Homo sapiens, UniProt P55201); details: Protein BRPF1; average of three replicates
# T5 construct: Recombinant protein kinase domains with a concentration of 2 μM
# T5 sequence (P55201 1-1214): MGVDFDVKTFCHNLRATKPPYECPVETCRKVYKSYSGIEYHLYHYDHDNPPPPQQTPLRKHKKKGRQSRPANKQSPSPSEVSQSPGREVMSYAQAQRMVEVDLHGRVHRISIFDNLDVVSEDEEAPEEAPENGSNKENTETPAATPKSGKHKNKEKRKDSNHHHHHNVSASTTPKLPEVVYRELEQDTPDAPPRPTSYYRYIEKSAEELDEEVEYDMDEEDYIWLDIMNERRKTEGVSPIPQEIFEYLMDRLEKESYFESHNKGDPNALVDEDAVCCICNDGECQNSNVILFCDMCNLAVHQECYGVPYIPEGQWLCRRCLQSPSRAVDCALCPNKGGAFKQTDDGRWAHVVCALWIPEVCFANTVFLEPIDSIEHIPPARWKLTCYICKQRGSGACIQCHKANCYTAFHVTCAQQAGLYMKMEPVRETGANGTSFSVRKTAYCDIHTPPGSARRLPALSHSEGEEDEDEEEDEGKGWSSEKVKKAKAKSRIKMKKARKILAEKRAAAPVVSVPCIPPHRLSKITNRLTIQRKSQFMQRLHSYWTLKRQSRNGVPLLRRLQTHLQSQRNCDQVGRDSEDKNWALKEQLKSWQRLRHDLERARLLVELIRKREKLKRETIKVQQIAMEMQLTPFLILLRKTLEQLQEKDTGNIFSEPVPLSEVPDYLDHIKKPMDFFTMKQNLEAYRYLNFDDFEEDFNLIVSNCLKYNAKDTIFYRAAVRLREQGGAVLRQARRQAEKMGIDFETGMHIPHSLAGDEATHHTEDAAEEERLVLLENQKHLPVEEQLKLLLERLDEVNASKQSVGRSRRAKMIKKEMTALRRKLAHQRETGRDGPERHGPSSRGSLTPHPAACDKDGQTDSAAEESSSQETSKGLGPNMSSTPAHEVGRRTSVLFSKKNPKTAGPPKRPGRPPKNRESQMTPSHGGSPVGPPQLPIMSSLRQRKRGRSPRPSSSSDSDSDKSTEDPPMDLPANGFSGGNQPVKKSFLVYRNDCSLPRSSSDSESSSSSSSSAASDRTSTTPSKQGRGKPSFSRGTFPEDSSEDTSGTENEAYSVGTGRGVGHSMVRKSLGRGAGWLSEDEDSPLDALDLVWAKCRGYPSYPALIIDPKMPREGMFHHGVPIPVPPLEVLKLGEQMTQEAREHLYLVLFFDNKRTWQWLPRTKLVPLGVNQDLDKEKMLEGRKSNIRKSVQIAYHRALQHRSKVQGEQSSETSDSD
# Outline: as §1
# [6] = target: T6, ~100 representative kinases (Homo sapiens, UniProt P29317); details: Protein EPHA2; average of three replicates
# T6 construct: Recombinant protein kinase domains with a concentration of 2 μM
# T6 sequence (P29317 24-976): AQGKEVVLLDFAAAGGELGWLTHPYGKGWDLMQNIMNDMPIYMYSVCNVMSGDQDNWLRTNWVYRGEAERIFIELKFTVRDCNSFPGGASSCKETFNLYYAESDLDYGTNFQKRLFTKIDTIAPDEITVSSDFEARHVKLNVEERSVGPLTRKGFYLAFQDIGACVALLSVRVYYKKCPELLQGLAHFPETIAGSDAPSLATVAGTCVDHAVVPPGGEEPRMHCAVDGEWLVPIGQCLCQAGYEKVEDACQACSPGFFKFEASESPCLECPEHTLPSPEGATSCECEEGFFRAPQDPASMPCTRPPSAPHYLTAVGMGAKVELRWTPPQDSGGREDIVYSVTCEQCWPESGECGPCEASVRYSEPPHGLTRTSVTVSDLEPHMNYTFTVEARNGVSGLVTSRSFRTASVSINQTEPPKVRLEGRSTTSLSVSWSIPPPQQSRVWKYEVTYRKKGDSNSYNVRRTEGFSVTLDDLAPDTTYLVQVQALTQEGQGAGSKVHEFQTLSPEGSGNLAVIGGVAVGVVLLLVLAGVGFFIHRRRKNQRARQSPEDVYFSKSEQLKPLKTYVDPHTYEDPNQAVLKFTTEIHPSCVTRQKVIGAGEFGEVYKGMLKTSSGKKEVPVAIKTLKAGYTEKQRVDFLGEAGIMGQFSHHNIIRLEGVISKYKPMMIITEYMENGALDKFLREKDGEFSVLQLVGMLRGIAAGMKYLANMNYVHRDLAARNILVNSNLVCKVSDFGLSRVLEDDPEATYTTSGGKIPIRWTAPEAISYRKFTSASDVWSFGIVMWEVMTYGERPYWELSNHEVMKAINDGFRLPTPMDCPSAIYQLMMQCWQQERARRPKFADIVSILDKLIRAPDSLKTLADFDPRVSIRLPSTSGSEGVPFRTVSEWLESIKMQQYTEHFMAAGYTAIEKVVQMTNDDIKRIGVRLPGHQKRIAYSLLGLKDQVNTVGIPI
# Outline: as §1
# [7] = target: T7, ~100 representative kinases (Homo sapiens, UniProt P68400); details: Protein CK2A1; average of three replicates
# T7 construct: Recombinant protein kinase domains with a concentration of 2 μM
# T7 sequence (P68400 whole entry, the tested form may be a part): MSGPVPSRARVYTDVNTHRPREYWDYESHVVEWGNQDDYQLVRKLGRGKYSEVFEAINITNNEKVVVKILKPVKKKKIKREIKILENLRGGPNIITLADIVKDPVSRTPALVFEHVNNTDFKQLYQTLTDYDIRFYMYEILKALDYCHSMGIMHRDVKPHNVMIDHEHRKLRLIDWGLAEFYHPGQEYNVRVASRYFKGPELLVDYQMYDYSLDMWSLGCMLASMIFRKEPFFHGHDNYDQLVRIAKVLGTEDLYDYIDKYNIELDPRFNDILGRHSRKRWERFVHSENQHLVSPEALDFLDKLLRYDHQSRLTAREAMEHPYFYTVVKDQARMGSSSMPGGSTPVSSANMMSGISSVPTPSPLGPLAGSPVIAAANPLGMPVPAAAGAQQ
# Outline: as §1
# [8] = target: T8, ~100 representative kinases (Homo sapiens, UniProt Q13557); details: Protein CAMK2D; average of three replicates
# T8 construct: Recombinant protein kinase domains with a concentration of 2 μM
# T8 sequence (Q13557 whole entry, the tested form may be a part): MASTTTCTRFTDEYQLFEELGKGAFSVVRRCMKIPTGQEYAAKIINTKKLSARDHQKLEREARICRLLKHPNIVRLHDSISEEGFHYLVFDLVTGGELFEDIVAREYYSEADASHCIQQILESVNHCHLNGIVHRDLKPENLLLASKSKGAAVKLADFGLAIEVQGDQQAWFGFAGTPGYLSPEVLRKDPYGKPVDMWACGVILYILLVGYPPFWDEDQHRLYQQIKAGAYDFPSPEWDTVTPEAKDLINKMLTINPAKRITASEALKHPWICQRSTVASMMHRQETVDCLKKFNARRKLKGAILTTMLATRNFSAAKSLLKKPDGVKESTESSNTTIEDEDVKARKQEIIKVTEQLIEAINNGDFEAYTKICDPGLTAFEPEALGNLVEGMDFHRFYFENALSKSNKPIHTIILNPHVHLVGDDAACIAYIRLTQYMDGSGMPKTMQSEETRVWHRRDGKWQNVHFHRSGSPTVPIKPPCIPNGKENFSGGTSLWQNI
# Outline: as §1
# [9] = target: T9, ~100 representative kinases (Homo sapiens, UniProt P54764); details: Protein EPHA4; average of three replicates
# T9 construct: Recombinant protein kinase domains with a concentration of 2 μM
# T9 sequence (P54764 20-986): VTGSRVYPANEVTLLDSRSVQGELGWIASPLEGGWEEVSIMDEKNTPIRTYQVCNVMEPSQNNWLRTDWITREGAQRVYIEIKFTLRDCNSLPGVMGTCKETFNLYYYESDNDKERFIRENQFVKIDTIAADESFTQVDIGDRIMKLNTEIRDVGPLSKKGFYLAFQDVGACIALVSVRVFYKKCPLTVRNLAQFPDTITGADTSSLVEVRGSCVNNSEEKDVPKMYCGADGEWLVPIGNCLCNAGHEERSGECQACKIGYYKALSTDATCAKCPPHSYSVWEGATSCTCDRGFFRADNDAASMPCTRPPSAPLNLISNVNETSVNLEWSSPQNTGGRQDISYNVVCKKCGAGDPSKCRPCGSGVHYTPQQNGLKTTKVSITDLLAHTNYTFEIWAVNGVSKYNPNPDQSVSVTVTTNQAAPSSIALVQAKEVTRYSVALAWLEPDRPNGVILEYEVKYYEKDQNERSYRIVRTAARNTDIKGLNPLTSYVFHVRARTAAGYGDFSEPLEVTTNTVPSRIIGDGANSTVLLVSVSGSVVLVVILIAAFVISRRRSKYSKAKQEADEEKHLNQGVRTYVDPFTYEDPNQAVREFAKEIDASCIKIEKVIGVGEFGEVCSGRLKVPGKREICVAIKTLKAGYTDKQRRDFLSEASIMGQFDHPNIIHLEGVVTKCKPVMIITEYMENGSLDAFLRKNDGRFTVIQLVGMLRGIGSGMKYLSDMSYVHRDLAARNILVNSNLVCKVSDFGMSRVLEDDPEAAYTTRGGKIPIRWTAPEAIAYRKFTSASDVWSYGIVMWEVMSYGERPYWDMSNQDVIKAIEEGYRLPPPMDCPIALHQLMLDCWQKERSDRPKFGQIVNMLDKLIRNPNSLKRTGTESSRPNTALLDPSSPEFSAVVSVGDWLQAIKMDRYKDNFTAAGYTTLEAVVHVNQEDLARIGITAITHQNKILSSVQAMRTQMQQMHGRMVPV
# Outline: as §1
# T1 sequence (P07332 whole entry, the tested form may be a part): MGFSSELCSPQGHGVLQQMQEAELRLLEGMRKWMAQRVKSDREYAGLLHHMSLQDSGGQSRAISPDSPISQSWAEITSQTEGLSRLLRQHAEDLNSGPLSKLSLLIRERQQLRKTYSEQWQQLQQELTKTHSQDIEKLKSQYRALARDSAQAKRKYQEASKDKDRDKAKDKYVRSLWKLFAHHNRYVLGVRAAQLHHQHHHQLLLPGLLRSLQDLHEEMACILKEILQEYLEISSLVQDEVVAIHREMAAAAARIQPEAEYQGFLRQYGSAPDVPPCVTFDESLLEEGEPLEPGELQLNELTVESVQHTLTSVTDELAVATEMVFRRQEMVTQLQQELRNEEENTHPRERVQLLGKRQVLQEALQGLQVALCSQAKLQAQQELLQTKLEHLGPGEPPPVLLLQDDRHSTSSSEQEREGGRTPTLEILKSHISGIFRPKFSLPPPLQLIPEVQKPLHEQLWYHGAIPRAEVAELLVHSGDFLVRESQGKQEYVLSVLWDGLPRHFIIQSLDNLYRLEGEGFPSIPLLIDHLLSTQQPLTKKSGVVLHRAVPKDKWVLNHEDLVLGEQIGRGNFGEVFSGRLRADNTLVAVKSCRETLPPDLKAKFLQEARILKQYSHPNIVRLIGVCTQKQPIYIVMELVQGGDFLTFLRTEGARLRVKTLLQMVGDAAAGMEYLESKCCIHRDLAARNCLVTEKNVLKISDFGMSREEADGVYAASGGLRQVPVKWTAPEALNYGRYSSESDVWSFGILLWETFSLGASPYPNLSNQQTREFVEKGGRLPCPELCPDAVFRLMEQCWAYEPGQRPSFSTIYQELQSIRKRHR
SMILES,dTm [1] [K],dTm [2] [K],dTm [3] [K],dTm [4] [K],dTm [5] [K],dTm [6] [K],dTm [7] [K],dTm [8] [K],dTm [9] [K]
Cc1cc(NC(=O)C2(C(=O)Nc3cccc(-c4c[nH]c5ncnc(N6CCOCC6)c45)c3)CC2)ccc1F [Compound 20],7.60,0.024,9.68,12.28,0.26,6.64,-0.56,0.24,3.23
CCNc1nc(Nc2cc(F)c(C(=O)N3CCOCC3)cc2OC)ncc1C(F)(F)F [GNE-7915],2.48,0.38,3.70,1.52,-1.14,0.40,1.87,-0.06,0.0738
CN[C@@H]1C[C@H]2O[C@@](C)([C@@H]1OC)n1c3ccccc3c3c4c(c5c6ccccc6n2c5c31)C(=O)NC4 [Staurosporine],,,,19.68,,,,,6.68
CC(=O)N1CCN(c2nc(Cl)nc3[nH]cc(-c4cccc(NC(=O)Nc5cc(C(C)(C)C)nn5-c5ccc(C)cc5)c4)c23)CC1 [Compound 31],0.00,-0.85,,0.19,-0.70,4.11,0.26,-0.29,2.58
"Cc1ccc(C(=O)Nc2ccc(CN3CCN(C)CC3)c(C(F)(F)F)c2)cc1C#Cc1cnc2[nH]ncc2c1 [GZD-824, reference compound]",,0.87,4.71,2.97,-0.65,17.23,-1.14,-0.21,15.22
"CNC(=O)c1cc(Oc2ccc(NC(=O)Nc3cc(C(C)(C)C)nn3-c3ccc4ncccc4c3)c(F)c2)ccn1 [Rebastinib, reference compound]",7.16,0.54,11.89,6.17,1.88,10.76,,2.16,15.87
"COc1cc2c(Oc3ccc(NC(=O)C4(C(=O)Nc5ccc(F)cc5)CC4)cc3F)ccnc2cc1OCCCN1CCOCC1 [Foretinib, reference compound]",6.46,0.0844,3.46,16.61,0.26,,0.00,0.34,11.16
"Cc1ccc(C(=O)Nc2ccc(CN3CCN(C)CC3)c(C(F)(F)F)c2)cc1C#Cc1cnc2cccnn12 [Ponatinib, reference compound]",,,,,,16.48,,,
Cc1ccc(-n2nc(C(C)(C)C)cc2NC(=O)Nc2cccc(-c3c[nH]c4ncnc(N5CCOCC5)c34)c2)cc1 [Compound 29],0.00,-0.31,,4.74,0.08,10.91,0.69,-0.40,6.97
COc1cc(S(C)(=O)=O)ccc1Nc1nc(N(C)C)c2c(Cl)c[nH]c2n1 [Compound 37],2.13,0.14,,4.57,-0.21,-0.56,0.51,0.41,-0.37
Cc1ccc(-n2nc(C(C)(C)C)cc2NC(=O)Nc2cccc(-c3c[nH]c4nc(Cl)nc(N5CCOCC5)c34)c2)cc1 [Compound 30],3.55,-0.99,,0.26,-1.99,3.08,0.59,-0.81,1.07
COc1cc(C(=O)N2CCOCC2)c(F)cc1Nc1nc(N(C)C)c2c(Cl)c[nH]c2n1 [Compound 36],2.67,1.60,,10.15,-1.63,-0.10,2.03,3.01,-0.69
